Reference: patent US20260240159A1, “HERBICIDAL COMPOSITIONS” (SYNGENTA CROP PROTECTION AG, priority 2023, published 2026)

Tests used:
Assay in all cases: Post-emergence glasshouse herbicidal efficacy, percentage damage to plant
Format in all cases: in vivo
Conditions in all cases: after 14 days
[1] = test system: Echinochloa crus-galli (ECHCG)
From the text: (§1) When active ingredients are combined, the activity to be expected (E) for any given active ingredient combination obeys the so-called Colby Formula and can be calculated as follows (Colby, S. R., Calculating synergistic and antagonistic responses of herbicide combination, Weeds, Vol. 15, pages 20-22; 1967): • ppm=milligrams of active ingredient (a.i.) per liter • X=% action by first active ingredient using p ppm of the active ingredient • Y=% action by second active ingredient sing q ppm of the active ingredient.
(§2) According to Colby, the expected action of active ingredients A+B using p+q ppm of active ingredient is represented by the following formula: […]
(§3) If the action actually observed (O) is greater than the expected action E then the action of the combination is super-additive, i.e. there is a synergistic effect. In mathematical terms, synergism corresponds to a positive value for the difference of (O-E). In the case of purely complementary addition of activities (expected activity), said difference (O-E) is zero. A negative value of said difference (O-E) signals a loss of activity compared to the expected activity.
(§4) Biological Efficacy Tests Seeds of a variety of test species are sown in standard soil in pots (Ipomoea hederacea (IPHOE), Alopecurus myosuroides (ALOMY), Lolium perenne (LOLPE), Echinochloa crus-galli (ECHCG), and Setaria faberi (SETFA)), and cultivated under controlled conditions in a glasshouse (at 24/16° C., day/night; 14 hours light; 65% humidity), the plants are sprayed with an aqueous spray solution derived from the dissolution of the test compound or composition in acetone and IF50 (11.12% Emulsogen EL360 TM+44.44% N-methylpyrrolidone+44.44% Dowanol DPM glycol ether) which was then diluted to the required concentration using 0.2% Genapol X080 (CAS No. 9043-30-5) in water as the diluent. Test compounds or compositions are applied at the rates stated. The test plants are then grown in a glasshouse under controlled conditions in a glasshouse (at 24/16° C., day/night; 14 hours light; 65% humidity) and watered twice daily. After 14 days, the test is evaluated for the percentage damage caused to the plant (100=total damage to plant; 0=no damage to plant), and the result are shown below in tables B1 to B5.

[2] = test system: Alopecurus myosuroides (ALOMY)
From the text: as §1, §2, §3, §4

[3] = test system: Lolium perenne (LOLPE)
From the text: as §1, §2, §3, §4

[4] = test system: Setaria faberi (SETFA)
From the text: as §1, §2, §3, §4

[5] = test system: Ipomoea hederacea (IPOHE)
From the text: as §1, §2, §3, §4

CCc1cccc(C)c1N(C(=O)CCl)[C@@H](C)COC [S-metolachlor]
Observed Activity (%) ([1]; S-metolachlor 18.75 g/Ha alone): 75.0%
Observed Activity (%) ([1]; S-metolachlor 37.5 g/Ha alone): 85.0%
Observed Activity (%) ([1]; S-metolachlor 75 g/Ha alone): 85.0%
Observed Activity (%) ([2]; S-metolachlor 18.75 g/Ha alone): 0.0%
Observed Activity (%) ([2]; S-metolachlor 37.5 g/Ha alone): 10.0%
Observed Activity (%) ([2]; S-metolachlor 75 g/Ha alone): 0.0%
Observed Activity (%) ([2]; S-metolachlor 150 g/Ha alone): 27.5%
Observed Activity (%) ([2]; S-metolachlor 300 g/Ha alone): 45.0%
Observed Activity (%) ([3]; S-metolachlor 18.75 g/Ha alone): 45.0%
Observed Activity (%) ([3]; S-metolachlor 37.5 g/Ha alone): 60.0%
Observed Activity (%) ([3]; S-metolachlor 75 g/Ha alone): 70.0%
Observed Activity (%) ([3]; S-metolachlor 150 g/Ha alone): 67.5%
Observed Activity (%) ([3]; S-metolachlor 300 g/Ha alone): 80.0%
Observed Activity (%) ([4]; S-metolachlor 37.5 g/Ha alone): 72.5%
Observed Activity (%) ([4]; S-metolachlor 75 g/Ha alone): 82.5%
Observed Activity (%) ([4]; S-metolachlor 150 g/Ha alone): 85.0%
Observed Activity (%) ([5]; S-metolachlor 62.5 g/Ha alone): 5.0%
Observed Activity (%) ([5]; S-metolachlor 125 g/Ha alone): 7.5%

CCOC(=O)C1(C)CC(c2cc(-n3c(=O)cc(C(F)(F)F)n(C)c3=O)c(F)cc2Cl)=NO1 (centres unmarked) [(Ia)]
inhibition at 1.875 g/ha ([1]; Echinochloa crus-galli, 336 h, (Ia) 1.875 g/Ha alone, read-out: Observed Activity (%)): 15%
inhibition at 3.75 g/ha ([1]; Echinochloa crus-galli, 336 h, (Ia) 3.75 g/Ha alone, read-out: Observed Activity (%)): 37.5%
inhibition at 7.5 g/ha ([1]; Echinochloa crus-galli, 336 h, (Ia) 7.5 g/Ha alone, read-out: Observed Activity (%)): 99%
inhibition at 1.875 g/ha ([2]; Alopecurus myosuroides, 336 h, (Ia) 1.875 g/Ha alone, read-out: Observed Activity (%)): 10%
inhibition at 3.75 g/ha ([2]; Alopecurus myosuroides, 336 h, (Ia) 3.75 g/Ha alone, read-out: Observed Activity (%)): 27.5%
inhibition at 7.5 g/ha ([2]; Alopecurus myosuroides, 336 h, (Ia) 7.5 g/Ha alone, read-out: Observed Activity (%)): 42.5%
inhibition at 15 g/ha ([2]; Alopecurus myosuroides, 336 h, (Ia) 15 g/Ha alone, read-out: Observed Activity (%)): 60%
inhibition at 1.875 g/ha ([3]; Lolium perenne, 336 h, (Ia) 1.875 g/Ha alone, read-out: Observed Activity (%)): 0%
inhibition at 3.75 g/ha ([3]; Lolium perenne, 336 h, (Ia) 3.75 g/Ha alone, read-out: Observed Activity (%)): 12.5%
inhibition at 7.5 g/ha ([3]; Lolium perenne, 336 h, (Ia) 7.5 g/Ha alone, read-out: Observed Activity (%)): 42.5%
inhibition at 15 g/ha ([3]; Lolium perenne, 336 h, (Ia) 15 g/Ha alone, read-out: Observed Activity (%)): 50%
inhibition at 1.875 g/ha ([4]; Setaria faberi, 336 h, (Ia) 1.875 g/Ha alone, read-out: Observed Activity (%)): 55%
inhibition at 3.75 g/ha ([4]; Setaria faberi, 336 h, (Ia) 3.75 g/Ha alone, read-out: Observed Activity (%)): 67.5%
inhibition at 0.9375 g/ha ([5]; Ipomoea hederacea, 336 h, (Ia) 0.9375 g/Ha alone, read-out: Observed Activity (%)): 84.8%
